The values below come from patent US20230265116A1, “DEGRADATION OF (EGFR) BY CONJUGATION OF EGFR INHIBITORS WITH E3 LIGASE LIGAND AND METHODS OF USE” (BEIGENE, LTD., priority 2020, published 2023).

The structures appear in SMILES notation.

Test [1] deals with EGFR Del19/T790M/C797S (BaF3-DTC cells). The experiment in a line: EGFR degradation HTRF assay, BaF3-DTC cells. To be noted: 16h treatment; for DTC Dmax (%): maximum percentage of degradation; for DC50: read-out: DTC DC50. The format is cell-based. The method, then:
BaF3 WT(wild type), BaF3-LTC(L858R/T790M/C797S) and BaF3-DTC(Del19/T790M/C797S) cells are treated with compounds diluted in 0.2% DMSO cell culture medium and incubate for 16h, 37° C., 5% CO2, H1975-#36, H1975-#28, H1975-#23 and HCC827 cells are treated with compounds diluted in 0.2% DMSO cell culture medium on day 2, incubate for 16h, 37° C., 5% CO2.the final concentriation of compounds in all assay is start with 10 uM, 5-fold dilution, total 8 doses were included.
After 16h treatment, add HTRF lysis buffer to each well; seal the plate and incubate 1 hour at room temperature on a plate shaker; Once the cells are lysed, 16 μL of cell lysate are transferred to a PE 384-well HTRF detection plate; 4 μL of pre-mixed HTRF antibodies are added to each well; Cover the plate with a plate sealer, spin 1000 rpm for 1 min, Incubate overnight at room temperature; Read on BMG PheraStar with HTRF protocol (337 nm-665 nm-620 nm).
The inhibition (degradation) percentage of the compound was calculated by the following equation: Inhibition percentage of Compound=100-100×(Signal-low control)/(High control-low control), wherein signal=each test compound group
High control=Cell group with added DMSO and without compound, indicating microplate readings without EGFR degradation;
Dmax is the maximum percentage of inhibition (degradation).
The IC50 (DC50) value of a compound can be obtained by fitting the following equation
Y=Bottom+(TOP−Bottom)/(1+((IC50/X)^hillslope))
Wherein, X and Y are known values, and IC50, Hillslope, Top and Bottom are the parameters obtained by fitting with software. Y is the inhibition percentage (calculated from the equation), X is the concentration of the compound; IC50 is the concentration of the compound when the 50% inhibition is reached. The smaller the IC50 value is, the stronger the inhibitory ability of the compound is. Vice versa, the higher the IC50 value is, the weaker the inhibitory ability of the compound is; Hillslope represents the slope of the fitted curve, generally around 1*; Bottom represents the minimum value of the curve obtained by data fitting, which is generally 0%±20%; Top represents the maximum value of the curve obtained by data fitting, which is generally 100%±20%. The experimental data were fitted by calculating and analyzing with Dotmatics data analysis software.
In general terms: Time-resolved FRET reads energy transfer from a long-lived donor to a nearby acceptor.

Test [2] addresses T1, EGFR L858R/T790M/C797S (BaF3-LTC cells) (Homo sapiens, UniProt P00533, C797S/L858R/T790M).
T1 construct: expressed in transfected cells; host or cells: BaF3
As to the kind of experiment: EGFR degradation HTRF assay, BaF3-LTC cells. The format is cell-based. To be noted: BaF3-LTC, 16h treatment; for Dmax: maximum percentage of degradation, read-out: LTC Dmax (%); for DC50: read-out: LTC DC50. In a few lines: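 Cells treated 16 h at 37 °C, 5% CO2 in medium with 0.2% DMSO; top final concentration 10 uM, 5-fold dilution, 8 doses. Lysates read by HTRF (665/620 nm); degradation % versus DMSO high control, DC50 from four-parameter fit, Dmax as maximal degradation.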

T1 sequence (P00533 25-1210 T790M/C797S/L858R): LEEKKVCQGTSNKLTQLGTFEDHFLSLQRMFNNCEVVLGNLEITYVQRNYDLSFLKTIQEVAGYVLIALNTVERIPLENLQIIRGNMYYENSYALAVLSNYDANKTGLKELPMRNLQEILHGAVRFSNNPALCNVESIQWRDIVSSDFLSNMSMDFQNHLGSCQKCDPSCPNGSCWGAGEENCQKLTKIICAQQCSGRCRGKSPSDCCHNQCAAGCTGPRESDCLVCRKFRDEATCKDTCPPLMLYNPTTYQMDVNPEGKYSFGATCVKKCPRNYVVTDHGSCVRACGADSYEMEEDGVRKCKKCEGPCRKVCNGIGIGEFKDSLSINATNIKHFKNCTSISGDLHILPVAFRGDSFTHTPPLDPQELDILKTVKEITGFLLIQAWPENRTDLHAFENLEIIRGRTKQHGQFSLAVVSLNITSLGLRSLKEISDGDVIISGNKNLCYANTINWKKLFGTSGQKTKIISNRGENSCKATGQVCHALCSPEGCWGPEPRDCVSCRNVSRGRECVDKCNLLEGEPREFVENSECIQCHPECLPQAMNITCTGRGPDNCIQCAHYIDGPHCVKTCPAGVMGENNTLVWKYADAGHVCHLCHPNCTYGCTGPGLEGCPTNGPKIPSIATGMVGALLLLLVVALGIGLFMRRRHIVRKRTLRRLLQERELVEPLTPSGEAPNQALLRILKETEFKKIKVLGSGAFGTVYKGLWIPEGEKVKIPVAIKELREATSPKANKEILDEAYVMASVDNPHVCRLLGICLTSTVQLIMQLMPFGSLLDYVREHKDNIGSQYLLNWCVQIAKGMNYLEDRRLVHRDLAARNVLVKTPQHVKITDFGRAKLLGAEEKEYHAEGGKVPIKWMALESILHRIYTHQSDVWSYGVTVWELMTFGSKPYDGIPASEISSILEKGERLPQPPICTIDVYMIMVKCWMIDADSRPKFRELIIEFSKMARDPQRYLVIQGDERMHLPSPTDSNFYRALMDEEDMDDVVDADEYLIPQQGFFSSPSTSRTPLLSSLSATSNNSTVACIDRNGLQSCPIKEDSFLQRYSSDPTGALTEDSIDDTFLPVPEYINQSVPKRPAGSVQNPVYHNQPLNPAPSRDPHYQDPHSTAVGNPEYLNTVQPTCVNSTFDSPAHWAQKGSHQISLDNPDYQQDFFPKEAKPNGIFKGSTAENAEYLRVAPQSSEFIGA

Turning to `CCc1cc(Nc2ncc(Br)c(Nc3ccc4nccnc4c3P(C)(C)=O)n2)c(OC)cc1N1CCC(N2CCN(CC3CCN(c4cccc(C5CCC(=O)NC5=O)c4)CC3)CC2)CC1` (stereo not shown) [Example 264, 3-(3-(4-((4-(1-(4-((5-bromo-4-((5-(dimethylphosphoryl)quinoxalin-6-yl)amino)pyrimidin-2-yl)amino)-2-ethyl-5-methoxyphenyl)piperidin-4-yl)piperazin-1-yl)methyl)piperidin-1-yl)phenyl)piperidine-2,6-dione], in test [1], the “DTC Dmax (%)” value was 74.58% and the DC50 (usually the midpoint of the concentration-degradation curve) was found to be 17.1 nM. In addition, in test [2], the Dmax (in general, the largest share of the target that was removed) came out at 86.2% and the DC50 is 61 nM.
With `CCc1cc(Nc2ncc(Br)c(Nc3ccc4c(=O)n(C)cnc4c3P(C)(C)=O)n2)c(OC)cc1N1CCC(N2CCN(CCC3CCN(c4cc(F)c(C5CCC(=O)NC5=O)c(F)c4)CC3)CC2)CC1` (stereo not shown) [Example 721, 3-(4-(4-(2-(4-(1-(4-((5-bromo-4-((8-(dimethylphosphoryl)-3-methyl-4-oxo-3,4-dihydroquinazolin-7-yl)amino)pyrimidin-2-yl)amino)-2-ethyl-5-methoxyphenyl)piperidin-4-yl)piperazin-1-yl)ethyl)piperidin-1-yl)-2,6-difluorophenyl)piperidine-2,6-dione], in test [1], the “DTC Dmax (%)” value is on record as 88.98% and the DC50 was determined as 7.28 nM. In addition, in test [2], the maximal degradation (Dmax) is 91.9% and the DC50 was determined as 49.4 nM.
The matching figures for `CCc1cc(Nc2ncc(Br)c(Nc3ccc4nccnc4c3P(C)(C)=O)n2)c(OC)cc1N1CCC(N2CCN(C(=O)C3CN(c4ccc(C5CCC(=O)NC5=O)c(F)c4)C3)CC2)CC1` (stereo not shown) [Example 228, 3-(4-(3-(4-(1-(4-((5-bromo-4-((5-(dimethylphosphoryl)quinoxalin-6-yl)amino)pyrimidin-2-yl)amino)-2-ethyl-5-methoxyphenyl)piperidin-4-yl)piperazine-1-carbonyl)azetidin-1-yl)-2-fluorophenyl)piperidine-2,6-dione]: 79.14%, 3.49 nM, 81.8% and 19.8 nM.
Regarding `CCc1cc(Nc2ncc(Br)c(Nc3ccc4ncn(C)c(=O)c4c3P(C)(C)=O)n2)c(OC)cc1N1CCC(N2CCN(CCc3cccc4c3n(C)c(=O)n4C3CCC(=O)NC3=O)CC2)CC1` (stereo not shown) [Example 698, 3-(4-(2-(4-(1-(4-((5-bromo-4-((5-(dimethylphosphoryl)-3-methyl-4-oxo-3,4-dihydroquinazolin-6-yl)amino)pyrimidin-2-yl)amino)-2-ethyl-5-methoxyphenyl)piperidin-4-yl)piperazin-1-yl)ethyl)-3-methyl-2-oxo-2,3-dihydro-1H-benzo[d]imidazol-1-yl)piperidine-2,6-dione], in test [1], the “DTC Dmax (%)” value was found to be 94.26% and the 50% degradation concentration (DC50) is 0.601 nM. Moreover, in test [2], the Dmax amounted to 93.6% and the DC50 amounted to 4.28 nM.
Regarding `CCc1cc(Nc2ncc(Br)c(Nc3ccc4nccnc4c3P(C)(C)=O)n2)c(OC)cc1N1CCC(N2CCN(C[C@H]3CCN(c4ccc5c(c4)C(=O)N(C4CCC(=O)NC4=O)C5=O)C3)CC2)CC1` (stereo partly drawn) [Example 232, 5-((R)-3-((4-(1-(4-((5-bromo-4-((5-(dimethylphosphoryl)quinoxalin-6-yl)amino)pyrimidin-2-yl)amino)-2-ethyl-5-methoxyphenyl)piperidin-4-yl)piperazin-1-yl)methyl)pyrrolidin-1-yl)-2-(2,6-dioxopiperidin-3-yl)isoindoline-1,3-dione], in test [1], the “DTC Dmax (%)” value is on record as 86.38% and the DC50 amounted to 23.8 nM. In addition, in test [2], the greatest degradation seen (Dmax) is 86.9% and the DC50 was determined as 43 nM.
`CCc1cc(Nc2ncc(Br)c(Nc3ccc4ncn(C)c(=O)c4c3P(C)(C)=O)n2)c(OC)cc1N1CCC(N2CCN(CCc3cc(F)c(C4CCC(=O)NC4=O)c(F)c3)CC2)CC1` (stereo not shown) [Example 428, 3-(4-(2-(4-(1-(4-((5-bromo-4-((5-(dimethylphosphoryl)-3-methyl-4-oxo-3,4-dihydroquinazolin-6-yl)amino)pyrimidin-2-yl)amino)-2-ethyl-5-methoxyphenyl)piperidin-4-yl)piperazin-1-yl)ethyl)-2,6-difluorophenyl)piperidine-2,6-dione]: in test [1], the “DTC Dmax (%)” value is given as 95.35% and the 50% degradation concentration (DC50) turned out to be 1.13 nM. In test [2], the Dmax came to 93.5% and the DC50 is 3.67 nM.
The matching figures for `CCc1cc(Nc2ncc(Br)c(Nc3ccc4nccnc4c3P(C)(C)=O)n2)c(OC)cc1N1CCC(N2CCN(CC3CCN(c4ccc5c(c4)CN(C4CCC(=O)NC4=O)C5=O)CC3)CC2)CC1` (stereo not shown) [Example 244, 3-(5-(4-((4-(1-(4-((5-bromo-4-((5-(dimethylphosphoryl)quinoxalin-6-yl)amino)pyrimidin-2-yl)amino)-2-ethyl-5-methoxyphenyl)piperidin-4-yl)piperazin-1-yl)methyl)piperidin-1-yl)-1-oxoisoindolin-2-yl)piperidine-2,6-dione]: 88.74%, 5.6 nM, 89.3% and 13 nM.
As to `CCc1cc(Nc2ncc(Br)c(Nc3ccc4nccnc4c3P(C)(C)=O)n2)c(OC)cc1N1CCC(N2CCN(C(=O)[C@H]3C[C@H](Nc4ccc(C5CCC(=O)NC5=O)cc4)C3)CC2)CC1` (stereo partly shown) [Example 298, 3-(4-(((1r,3r)-3-(4-(1-(4-((5-bromo-4-((5-(dimethylphosphoryl)quinoxalin-6-yl)amino)pyrimidin-2-yl)amino)-2-ethyl-5-methoxyphenyl)piperidin-4-yl)piperazine-1-carbonyl)cyclobutyl)amino)phenyl)piperidine-2,6-dione], in test [1], the “DTC Dmax (%)” value came to 86.58% and the DC50 was 4.38 nM. Besides, in test [2], the Dmax was found to be 80.8% and the DC50 was determined as 16.7 nM.
On to `CCc1cc(Nc2ncc(Br)c(Nc3ccc4nccnc4c3P(C)(C)=O)n2)c(OC)cc1N1CCC(N2CCN(C(=O)[C@@H]3CCN(c4ccc5c(c4)CN(C4CCC(=O)NC4=O)C5=O)C3)CC2)CC1` (stereo partly drawn) [Example 241, 3-(5-((R)-3-(4-(1-(4-((5-bromo-4-((5-(dimethylphosphoryl)quinoxalin-6-yl)amino)pyrimidin-2-yl)amino)-2-ethyl-5-methoxyphenyl)piperidin-4-yl)piperazine-1-carbonyl)pyrrolidin-1-yl)-1-oxoisoindolin-2-yl)piperidine-2,6-dione], for which, in test [1], the “DTC Dmax (%)” value is on record as 89.74% and the half-maximal degradation concentration (DC50) is 3.26 nM. Further, in test [2], the Dmax is 87.6% and the DC50 was 4.6 nM.
The matching figures for `COc1cc(N2CCC(N3CCN(CCc4cc(F)c(C5CCC(=O)NC5=O)c(F)c4)CC3)CC2)c(C(C)O)cc1Nc1ncc(Br)c(Nc2ccc3nccnc3c2P(C)(C)=O)n1` (stereo not shown) [Example 430, 3-(4-(2-(4-(1-(4-((5-bromo-4-((5-(dimethylphosphoryl)quinoxalin-6-yl)amino)pyrimidin-2-yl)amino)-2-(1-hydroxyethyl)-5-methoxyphenyl)piperidin-4-yl)piperazin-1-yl)ethyl)-2,6-difluorophenyl)piperidine-2,6-dione]: 97.63%, 2.64 nM, 94.5% and 4.5 nM.
